Laboratory results from patent US10807982B2, “Bromodomain inhibitors” (CELGENE QUANTICEL RESEARCH, INC., priority 2015, dated 2020).

Legend:
BRD4(BD1) = BRD4(BD1) (Homo sapiens (Human), UniProt O60885); test: In vitro enzyme inhibition assay (BRD4 AlphaScreen, H4-tetraacetyl peptide); format: binding; settings: BRD4(BD1) 2 nM, peptide 15 nM
Experimental: Determination of the IC50 for the heterocyclic derivative BRD4 inhibitors disclosed herein was performed as follows. His-tagged […] was cloned, expressed and purified to homogeneity. Filipakopoulos et al., 468 Nature 1067 (2010). BRD4 binding and inhibition was assessed by monitoring the interaction of biotinylated H4-tetraacetyl peptide (AnaSpec, H4K5/8/12/16(Ac), biotin—labeled) with the target using the AlphaScreen technology (Life Technologies). In a 384-well ProxiPlate BRD4(BD1) (2 nM final) was combined with peptide (15 nM final) in 50 mM HEPES (pH 7.3), 10 mM NaCl, 0.25 mM TCEP, 0.1% (w/v) BSA, and 0.005% (w/v) Brij-35 either in the presence of DMSO (final 0.4% DMSO) or compound dilution series in DMSO. After 20 min incubation at RT, Alpha streptavidin donor beads and Nickel Chelate acceptor beads were added to a final concentration of 5 μg/mL. After 2 hr of equilibration, plates were read on an Envision instrument and the IC50 was calculated using a four parameter non-linear curve fit.
The ability of the compounds disclosed herein to inhibit BRD4 activity was quantified and the respective IC50 value was determined.

[1] = tested on: HL-60, human proleukemia cells; test: Cell-MTS cellular proliferation assay, HL-60; format: cell-based; settings: HL-60 cells, 168 hr incubation
Experimental: (§1) A colorimetric cellular proliferation assay (Cell-MTS assay) was performed to assess the ability of the heterocyclic derivative […] inhibitors disclosed herein to effect the proliferation of established cancer cell lines.
(§2) The Cell-MTS assay is a 7-day plate-based colorimetric assay which quantifies the amount of newly generated NADH in the presence or absence of test compound. The NADH level is used for the quantification of cancer cell proliferation.
(§3) Established cancer cell lines with a variety of driving mutations were obtained from American Type Culture Collection (ATCC) and routinely passaged according to ATCC protocols. For routine assay, these cells were seeded at densities which enabled ˜90% confluence after 7 days of culture. Raji, human Burkitts lymphoma cells, (cMYC) were seeded at 15,000 cells per 96-well. HL-60, human proleukemia cells, (NRAS, p16, p53, c-Myc amplified) were seeded at 5,000 cells per 96-well. NCI-H460, human non-small cell lung cancer cells. (KRAS, PIK3CA, STLK11, p16) were seeded at 3,000 cells per 96-well. 24 hr after plating, cells received an 11 point dilution of test compound with final concentration ranges from 100 µM to 2.0 nM. Cells were incubated in the presence of compound for 168 hr at 37° C., and 5% CO2. At the end of this incubation period, 80 µL of media is removed and 20 µL of CellTiter 96® AQueous Non-Radioactive Cell Proliferation Assay solution (Promega) was added. The cells were incubated until the OD490 was >0.6. IC50 values were calculated using the IDBS XLfit software package and include background subtracted OD490 values and normalization to DMSO controls. Cellular proliferation IC50 values were uploaded and archived using the Chem Biography Platform. Table 3 provides the results of the in vitro enzyme inhibition assay experiments and the in vitro cell-based assay experiments performed with the compounds disclosed herein: […]

[2] = tested on: NCI-H460, human non-small cell lung cancer cells; test: Cell-MTS cellular proliferation assay, NCI-H460; format: cell-based; settings: 168 hr incubation
Experimental: as §1, §2, §3

[3] = tested on: Raji, human Burkitts lymphoma cells; test: Cell-MTS cellular proliferation assay, Raji; format: cell-based; settings: 168 hr incubation
Experimental: as §1, §2, §3

SMILES	IC50 (BRD4(BD1)) [nM]	other results
CCS(=O)(=O)Nc1cc(-c2cc(C)c(=O)n(C)c2)c2nc(C3CC3)n(C)c2c1 [Example 54, N-[2-cyclopropyl-7-(1,5-dimethyl-6-oxopyridin-3-yl)-3-methylbenzimidazol-5-yl]ethanesulfonamide]	≤ 500	–
Cc1cc(-c2cc(S(C)(=O)=O)cc3cc(-c4ccccc4)oc23)cn(C)c1=O [Example 25, 1,3-dimethyl-5-(5-methylsulfonyl-2-phenyl-1-benzofuran-7-yl)pyridin-2-one]	≤ 500	–
CCOc1nc2c(NS(C)(=O)=O)cc(-c3cc(C)c(=O)n(C)c3)cc2n1CC1CC1 [Example 72, N-[1-(cyclopropylmethyl)-6-(1,5-dimethyl-6-oxopyridin-3-yl)-2-ethoxybenzimidazol-4-yl]methanesulfonamide]	≤ 500	IC50 ([1]; Homo sapiens): ≤ 500 nM; IC50 ([2]; Homo sapiens): 500 to 5000 nM; IC50 ([3]; Homo sapiens): ≤ 500 nM
CCCCn1cnc2c(NS(=O)(=O)CC)cc(-c3cc(C)c(=O)n(C)c3)cc21 [Example 40, N-[1-butyl-6-(1,5-dimethyl-6-oxopyridin-3-yl)benzimidazol-4-yl]ethanesulfonamide]	≤ 500	IC50 ([1]; Homo sapiens): ≤ 500 nM; IC50 ([2]; Homo sapiens): > 5000 nM; IC50 ([3]; Homo sapiens): ≤ 500 nM
CN1Cc2ccc(-c3cn(C)c(=O)c4ccccc34)cc2S1(=O)=O [Example 1, 2-methyl-4-(2-methyl-1,1-dioxo-3H-1,2-benzthiazol-6-yl)isoquinolin-1-one]	500 to 5000	IC50 ([1]; Homo sapiens): 500 to 5000 nM; IC50 ([2]; Homo sapiens): 500 to 5000 nM; IC50 ([3]; Homo sapiens): 500 to 5000 nM
Cc1cc(-c2cc3c(S(C)(=O)=O)cccc3n2CCC2CC2)cn(C)c1=O [Example 77, 5-[1-(2-cyclopropylethyl)-4-methylsulfonylindol-2-yl]-1,3-dimethylpyridin-2-one]	≤ 500	–
Cc1cc(-c2cc3c(S(C)(=O)=O)cccc3n2CC2CC2)cn(C)c1=O [Example 76, 5-[1-(cyclopropylmethyl)-4-methylsulfonylindol-2-yl]-1,3-dimethylpyridin-2-one]	≤ 500	–
CN1Cc2cc(Oc3ccc(F)cc3F)c(-c3ccc(=O)n(C)c3)cc2S1(=O)=O [Example 12, 5-[5-(2,4-difluorophenoxy)-2-methyl-1,1-dioxo-3H-1,2-benzothiazol-6-yl]-1-methylpyridin-2-one]	≤ 500	–
CCS(=O)(=O)Nc1cc(-c2cn(C)c(=O)c3ccccc23)c2nc(C3CC3)n(C)c2c1 [Example 55, N-[2-cyclopropyl-3-methyl-7-(2-methyl-1-oxoisoquinolin-4-yl)benzimidazol-5-yl]ethanesulfonamide]	≤ 500	–
Cc1cc(-c2cc(NS(C)(=O)=O)c3nc(C)n([C@H](C)c4ccccc4)c3c2)cn(C)c1=O [Example 45, N-[6-(1,5-dimethyl-6-oxopyridin-3-yl)-2-methyl-1-[(1R)-(1-phenylethyl)]benzimidazol-4-yl]methanesulfonamide]	–	IC50 [1]: ≤ 500 nM; IC50 [2]: 500 to 5000 nM; IC50 [3]: ≤ 500 nM
CCc1cc2cc(S(C)(=O)=O)cc(-c3cc(C)c(=O)n(C)c3)c2o1 [Example 21, 5-(2-ethyl-5-methylsulfonyl-1-benzofuran-7-yl)-1,3-dimethylpyridin-2-one]	≤ 500	–
CCS(=O)(=O)c1cc(-c2cc(OC)c(=O)n(C)c2)cc2c1nc(C)n2CC1CC1 [Example 70, 5-[3-(cyclopropylmethyl)-7-ethylsulfonyl-2-methylbenzimidazol-5-yl]-3-methoxy-1-methylpyridin-2-one]	≤ 500	–
Cc1cc(-c2nc(NS(C)(=O)=O)c3nc(C)n(Cc4ccc(F)cc4)c3n2)cn(C)c1=O [Example 22, N-[2-(1,5-dimethyl-6-oxopyridin-3-yl)-9-[(4-fluorophenyl)methyl]-8-methylpurin-6-yl]methanesulfonamide]	≤ 500	–
CCn1c(-c2cc(C)c(=O)n(C)c2)cc2c(S(C)(=O)=O)cccc21 [Example 75, 5-(1-ethyl-4-methylsulfonylindol-2-yl)-1,3-dimethylpyridin-2-one]	≤ 500	–
Cn1cc(-c2cc3c(S(C)(=O)=O)cccc3n2CC2CC2)c2ccccc2c1=O [Example 78, 4-[1-(cyclopropylmethyl)-4-methylsulfonylindol-2-yl]-2-methylisoquinolin-1-one]	≤ 500	–
CCS(=O)(=O)c1cc(-c2cc(C)c(=O)n(C)c2)cc2c1nc(C)n2CC1CC1 [Example 69, 5-[3-(cyclopropylmethyl)-7-ethylsulfonyl-2-methylbenzimidazol-5-yl]-1,3-dimethylpyridin-2-one]	≤ 500	–
COc1cc(-c2cc(CS(C)(=O)=O)cc3nc(C4CC4)oc23)cn(C)c1=O [Example 63, 5-[2-cyclopropyl-5-(methylsulfonylmethyl)-1,3-benzoxazol-7-yl]-3-methoxy-1-methylpyridin-2-one]	≤ 500	–
CCc1nc2c(NS(C)(=O)=O)cc(-c3cc(C)c(=O)n(C)c3)cc2n1CC1CC1 [Example 74, N-[1-(cyclopropylmethyl)-6-(1,5-dimethyl-6-oxopyridin-3-yl)-2-ethylbenzimidazol-4-yl]methanesulfonamide]	≤ 500	–

Now from value to compound, other results behind:

IC50 (BRD4(BD1)) [nM]	SMILES	other results
≤ 500	Cc1cc(-c2cc(NS(C)(=O)=O)c3oc(=O)n(CC4CC4)c3c2)cn(C)c1=O [Example 101, N-[3-(cyclopropylmethyl)-5-(1,5-dimethyl-6-oxopyridin-3-yl)-2-oxo-1,3-benzoxazol-7-yl]methanesulfonamide]	IC50 ([1]; Homo sapiens): 500 to 5000 nM; IC50 ([2]; Homo sapiens): > 5000 nM; IC50 ([3]; Homo sapiens): 500 to 5000 nM
500 to 5000	Cc1cc(-c2cc(S(C)(=O)=O)ccc2OCC2CC2)c2n(c1=O)CCC2(F)F [Example 89, 8-[2-(cyclopropylmethoxy)-5-methylsulfonylphenyl]-1,1-difluoro-6-methyl-2,3-dihydroindolizin-5-one]	–
≤ 500	Cc1cc(-c2cc(NS(C)(=O)=O)c3oc(=O)n(Cc4ccc(F)cc4)c3c2)cn(C)c1=O [Example 102, N-[5-(1,5-dimethyl-6-oxopyridin-3-yl)-3-[(4-fluorophenyl)methyl]-2-oxo-1,3-benzoxazol-7-yl]methanesulfonamide]	IC50 ([1]; Homo sapiens): ≤ 500 nM; IC50 ([2]; Homo sapiens): > 5000 nM; IC50 ([3]; Homo sapiens): ≤ 500 nM
≤ 500	CCS(=O)(=O)Nc1cc(-c2cc(C)c(=O)n(C)c2)cc2c1c(F)nn2Cc1ccccc1 [Example 106, N-[1-benzyl-6-(1,5-dimethyl-6-oxopyridin-3-yl)-3-fluoroindazol-4-yl]ethanesulfonamide]	–
≤ 500	CCS(=O)(=O)Nc1cc(-c2cc(C)c(=O)n(C)c2)cc2c1c(F)nn2Cc1ccc(F)cc1 [Example 105, N-[6-(1,5-dimethyl-6-oxopyridin-3-yl)-3-fluoro-1-[(4-fluorophenyl)methyl]indazol-4-yl]ethanesulfonamide]	–
≤ 500	CCS(=O)(=O)Nc1cc(-c2cc(C)c(=O)n(C)c2)cc2c1nc(OC)n2CC1CC1 [Example 103, N-[1-(cyclopropylmethyl)-6-(1,5-dimethyl-6-oxopyridin-3-yl)-2-methoxybenzimidazol-4-yl]ethanesulfonamide]	–
≤ 500	Cc1cc(-c2cc(S(C)(=O)=O)ccc2OCC2CC2)c2n(c1=O)CCC2F (racemic) [Example 90, (±)-8-[2-(cyclopropylmethoxy)-5-methylsulfonylphenyl]-1-fluoro-6-methyl-2,3-dihydro-1H-indolizin-5-one]	–
≤ 500	Cc1cc(-c2nc(NS(C)(=O)=O)c3nc(C)n(CC4CC4)c3n2)cn(C)c1=O [Example 81, N-[9-(cyclopropylmethyl)-2-(1,5-dimethyl-6-oxopyridin-3-yl)-8-methylpurin-6-yl]methanesulfonamide]	–
≤ 500	Cc1cc(-c2cc(NS(C)(=O)=O)c3c(F)nn(Cc4ccccc4)c3c2)cn(C)c1=O [Example 104, N-[1-benzyl-6-(1,5-dimethyl-6-oxopyridin-3-yl)-3-fluoroindazol-4-yl]methanesulfonamide]	–
